The text below walks through data of patent publication US9732046B2, “Substituted 1,2,4-triazines as tubulin inhibitors” (YM Biosciences Australia Pty Ltd., priority 2003, dated 2017).

One assay deals with DU145 (Prostate Cancer). The assay can be described thus: Cellular growth inhibition assay (MTT), DU145. Particulars: Homo sapiens, DU-145, Table 1, 40 hr incubation. The format is cell-based. The procedure, abridged:
(§1)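 Late-log-phase cells (K562 in RPMI, DU145 in DMED, PC3 in F12K; all 10% FBS, Glutamx, plus MEM non-essential amino acids for DU145 and PC3) were plated at 50000–200,000 cell/mL (1.1× final) with compounds added at 10× final. After 40 hr at 37° C, 5% CO2, MTT was added for 6 hours, then SDS/HCl lysis overnight and absorbance read at 590 nm.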

Another assay relates to PC3 (Prostate Cancer). The assay can be described thus: Cellular growth inhibition assay (MTT), PC3. Particulars: Table 1, 40 hr incubation. The format is cell-based. In a few lines: as §1
For assay [1], the system named is K562 (Chronic Myeloid Leukemia). The assay can be described thus: Cellular growth inhibition assay (MTT), K562. The format is cell-based. Particulars: Homo sapiens, Table 1, 40 hr incubation. The procedure, abridged: as §1
The target in assay [2] is T1, TelJak2 (BaF3 TELJAK cells, TEL/Jak2 fusion) (Homo sapiens, UniProt O60674).
T1 construct: The regions encompassing the kinase domain of JAK2 (nucleotides 2994-3914); expressed in transfected cells; host or cells: BaF3 cells bearing the pTET-off plasmid, transfected with pTELJAK2 (pTRE2 vector); the other entry of the earlier key: ETV6 (P41212, Transcription factor ETV6)
The assay can be described thus: Cellular growth inhibition assay (MTT), BaF3 TEL:JAK2 cell line. Conditions: Table 1, 40 hr incubation. The format is cell-based.

Assay [3] has as its target T2, TelJak3 (BaF3 TELJAK cells, TEL/JAK3 fusion) (Homo sapiens, UniProt P52333).
T2 construct: For JAK3 Sa1 I/Not I cleaved kinase domain PCR product was ligated with BamH I/Sa1 I cleaved TELproduct; expressed in transfected cells; host or cells: BaF3 cells bearing the pTET-off plasmid, transfected with pTELJAK3 (pTRE2 vector); the other entry of the earlier key: ETV6 (P41212, Transcription factor ETV6)
The assay can be described thus: Cellular growth inhibition assay (MTT), BaF3 TEL:JAK3 cell line. The format is cell-based. Particulars: Table 1, 40 hr incubation.

For assay [4], the system named is Tubulin (microtubule protein). The assay can be described thus: Tubulin assay (turbidometric assay of microtubule assembly). Conditions: Table 1; 50 μM; absorbance at 340 nm, 37° C. The format is biochemical. The method, then: Turbidometric assays of microtubule assembly were performed by incubating microtubule protein in cuvettes at 37° C. in a thermostatically controlled spectrophotometer measuring the change in absorbance at 340 nm over time. The microtubule protein was incubated with the each test compound at 0° C. and polymerisation was initiated by addition of 1 mM GTP, prior to heating to 37° C.

T1 sequence (O60674 with tags, fused parts or gaps): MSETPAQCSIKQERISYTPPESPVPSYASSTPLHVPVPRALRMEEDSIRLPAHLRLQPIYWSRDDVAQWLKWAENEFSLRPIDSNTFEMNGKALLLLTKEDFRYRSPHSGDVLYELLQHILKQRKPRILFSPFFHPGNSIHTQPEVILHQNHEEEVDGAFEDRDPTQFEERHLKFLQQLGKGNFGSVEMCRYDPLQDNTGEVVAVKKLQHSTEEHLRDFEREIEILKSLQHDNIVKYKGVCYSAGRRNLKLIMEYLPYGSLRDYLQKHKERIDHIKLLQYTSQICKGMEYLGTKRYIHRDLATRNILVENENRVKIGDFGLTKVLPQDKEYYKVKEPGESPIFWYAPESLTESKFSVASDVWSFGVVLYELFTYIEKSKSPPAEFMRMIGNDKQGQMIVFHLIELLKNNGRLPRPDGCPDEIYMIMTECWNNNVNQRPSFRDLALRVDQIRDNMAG
T2 sequence (P52333 with tags, fused parts or gaps): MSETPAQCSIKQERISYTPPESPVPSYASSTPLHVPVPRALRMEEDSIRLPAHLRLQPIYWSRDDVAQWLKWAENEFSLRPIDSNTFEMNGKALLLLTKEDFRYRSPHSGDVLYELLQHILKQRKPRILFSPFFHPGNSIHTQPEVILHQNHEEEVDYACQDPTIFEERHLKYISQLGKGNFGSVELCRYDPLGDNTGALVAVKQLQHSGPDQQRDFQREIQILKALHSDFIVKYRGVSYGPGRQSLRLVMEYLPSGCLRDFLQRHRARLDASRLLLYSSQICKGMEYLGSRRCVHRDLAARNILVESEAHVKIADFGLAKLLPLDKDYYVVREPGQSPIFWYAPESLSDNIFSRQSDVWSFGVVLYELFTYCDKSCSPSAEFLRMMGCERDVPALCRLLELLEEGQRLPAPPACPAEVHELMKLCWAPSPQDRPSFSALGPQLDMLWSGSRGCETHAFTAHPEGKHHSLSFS

A word on the inhibition: it is the change of the read-out against control, counted positive when it falls. Lower therefore signals little suppression. `CCCC(Nc1cncc(-c2ccc(NC(=O)NCC)c(OC)c2)n1)c1cccc(F)c1` (stereo not drawn): the inhibition at 20 µM (in the assay on DU145 (Prostate Cancer); in the assay on PC3 (Prostate Cancer); in assay [1]; in assay [2]; in assay [3]) was greater than 50% each time. Besides, the “Tubulin inhibition of tubulin polymerisation” value (shortened to “Tubulin inhibition”) in assay [4] was “+ (compounds which inhibited tubulin polymerisation by greater than 50% at 50 μM)”.
Regarding `CCCC(Nc1cncc(-c2ccc(OCCCCN(CC)CC)c(OC)c2)n1)c1ccccc1` (stereo not drawn), the inhibition at 20 µM (in the assay on DU145 (Prostate Cancer); with PC3 (Prostate Cancer); in assay [1]; in assay [2]; in assay [3]) was greater than 50% throughout. Moreover, the “Tubulin inhibition” value in assay [4] was “+ (compounds which inhibited tubulin polymerisation by greater than 50% at 50 μM)”.
As to `CCCC(Nc1cncc(-c2ccc(OCCCCN3CCN(C)CC3)c(OC)c2)n1)c1ccccc1` (stereo not drawn), the inhibition at 20 µM (with DU145 (Prostate Cancer); with PC3 (Prostate Cancer); in assay [1]; in assay [2]; in assay [3]) was greater than 50% throughout. Further, the “Tubulin inhibition” value in assay [4] was “+ (compounds which inhibited tubulin polymerisation by greater than 50% at 50 μM)”.
Turning to `CCCC(Nc1cncc(-c2ccc(OCCCCN)c(OC)c2)n1)c1ccccc1` (stereo not drawn), the inhibition at 20 µM (with DU145 (Prostate Cancer); in the assay on PC3 (Prostate Cancer); in assay [1]; in assay [2]; in assay [3]) was greater than 50% in each case. In addition, the “Tubulin inhibition” value in assay [4] is given as “+ (compounds which inhibited tubulin polymerisation by greater than 50% at 50 μM)”.
As to `CCCC(Nc1cncc(-c2ccc(CNC(=O)C3CCNCC3)cc2)n1)c1ccccc1` (stereo not drawn), the inhibition at 20 µM (in the assay with DU145 (Prostate Cancer); with PC3 (Prostate Cancer); in assay [1]; in assay [2]; in assay [3]) was greater than 50% in each case. In assay [4], the “Tubulin inhibition” value is listed as “+ (compounds which inhibited tubulin polymerisation by greater than 50% at 50 μM)”.
As for `CCCC(Nc1nnc(C)c(-c2ccc(O)c(OC)c2)n1)c1ccccc1` (stereo not drawn), the inhibition at 20 µM (with DU145 (Prostate Cancer); in the assay on PC3 (Prostate Cancer); in assay [1]; in assay [2]; in assay [3]) was greater than 50% in each case. For the same molecule, in assay [4], the “Tubulin inhibition” value is recorded as “+ (compounds which inhibited tubulin polymerisation by greater than 50% at 50 μM)”.
Take `CCCC(Nc1cncc(-c2ccc(CN3CCCC3)cc2)n1)c1ccccc1` (stereo not drawn): the inhibition at 20 µM (in the assay with DU145 (Prostate Cancer); in the assay with PC3 (Prostate Cancer); in assay [1]; in assay [2]; in assay [3]) was greater than 50% each time. Moreover, the “Tubulin inhibition” value in assay [4] is given as “+ (compounds which inhibited tubulin polymerisation by greater than 50% at 50 μM)”.
As for `CCCC(Nc1cncc(-c2ccc(CN)c(OC)c2)n1)c1cccnc1` (stereo not drawn), the inhibition at 20 µM (in the assay on DU145 (Prostate Cancer); in the assay with PC3 (Prostate Cancer); in assay [1]; in assay [2]; in assay [3]) was greater than 50% in each case. Also, the “Tubulin inhibition” value in assay [4] is “+ (compounds which inhibited tubulin polymerisation by greater than 50% at 50 μM)”.
Take `CCNC(=O)Nc1ccc(-c2cncc(N[C@@H](CC)c3cccnc3)n2)cc1OC`: the inhibition at 20 µM (with DU145 (Prostate Cancer); in the assay on PC3 (Prostate Cancer); in assay [1]; in assay [2]; in assay [3]) was greater than 50% each time. Also, the “Tubulin inhibition” value in assay [4] was “+ (compounds which inhibited tubulin polymerisation by greater than 50% at 50 μM)”.
